Measured values published in PMC7827809, “Responses of the Pheromone-Binding Protein of the Silk Moth Bombyx mori on a Graphene Biosensor Match Binding Constants in Solution” (Sensors (Basel, Switzerland), 2021).
Entries after “also recorded” stand apart in the source; their conditions may differ. Like-named read-outs stand apart in the source and are kept apart here.

Tests used:
[1] = molecular target: T1, BmorPBP1 immobilized on reduced graphene oxide field-effect transistor (Bombyx mori, UniProt P34174); assay: BmorPBP1-functionalized rGO-FET biosensor (titration and kinetic runs, Langmuir model); type: binding
T1 construct: polyhistidine (his-tag, from pET15b) (N); made in house; host or cells: Escherichia coli
T1 sequence (P34174 23-164): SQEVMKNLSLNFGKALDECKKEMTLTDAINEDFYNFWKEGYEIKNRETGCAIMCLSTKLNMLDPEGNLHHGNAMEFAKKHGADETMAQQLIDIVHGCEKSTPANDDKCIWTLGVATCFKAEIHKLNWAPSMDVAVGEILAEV
Description: Reduced graphene oxide field-effect transistors (rGO-FET) were fabricated as previously described with a modified channel width of 30 µm. Electrical properties of the FET devices were tested along with the procedure. For the detection of different odorants, the rGO-based biosensors were functionalized with BmorPBP1. Briefly, for the attachment of the protein to the sensing area, the graphene surface was chemically modified with a bifunctional linker: a 10-μL droplet of a 10-μM 6-(4-(pyren-3-yl) butanamido)-2-(bis(carboxymethyl) amino) hexanoic acid solution was applied overnight to the rGO channel area, rinsed, incubated for 30 min with a 40-mM NiCl2 solution (pH 5.5, adjusted with KOH), rinsed, then incubated with 20 μL of a 10-μM protein solution, followed by a final rinse.
The evaluation of BmorPBP1 binding affinities to various odorants was performed under the following standardized conditions: electrical measurements were taken using a Keithley 4200 semiconductor characterization system. An Ag/AgCl reference electrode (Flex ref, World Precision Instruments) was used to operate the FET device in liquid gate configuration with a constant gate bias (Vg) of −0.6 V and a constant source-drain bias (VDS) of 0.05 V. A flow rate of the odorant solutions in the flow cell was set at 300 µL/min in order to minimize mass transfer limitations of the analytes to the sensor surface. […] Subsequently, the biosensor was titrated with different odorant concentrations (1 μM–4 mM) and the change in source–drain current (ΔIDS) was monitored in real time. Here, the lowest odorant concentration was injected first, and the odorant was allowed to interact with the surface immobilized BmorPBP1 to reach equilibrium, as indicated by a constant source–drain current. This process was repeated with odorant solutions of higher concentrations, until the surface was fully saturated with the target analyte, as indicated by a constant source–drain current (IDS). Surface titration experiments were terminated by a final washing step using pure buffer in order to dissociate the formed PBP1-odorant complex, resulting in almost complete restoration of the initial baseline current. […] For this reason, the drain current response curves were normalized by subtraction to the baseline current. Kinetic parameters, as well as the dissociation constant, Kd, of the above described titration experiments were analyzed using the Langmuir model.
With the electronic transducer directly coupled to a flow cell, one can perform titrations as well as kinetic measurements by online changing of the analyte solution (pure buffer, different analytes at different concentrations) flowing through the cell, while recording the sensor response, i.e., a change in the source–drain current, ΔIDS = IDS − IDSBaseline, in real time.
Earlier studies have given evidence that the underlying molecular mechanism of the recognition and binding of odorant analytes from solution to the surface-immobilized protein, BmorPBP1 in this case, can be well described by the Langmuir adsorption model: the sensor has a fixed number of binding sites on its surface, whose occupancy is measured by Θ, the coverage, ranging from 0 to 1. […] The Langmuir model describes this relation between the coverage, Θ, and the bulk analyte concentration, c0 , by Equation (1):(1) Θ(c0)=ΔIDS(c0)/ΔIDS(c∞)=c0/Kd/(1+c0/Kd)
Alternatively, with the flow cell attached, one can measure the kinetics of the sensor response, ΔIDS, after changing the concentration in the bulk to another value. For an increase of the bulk concentration this can be described in the Langmuir model by Equation (2):(2) Θ(t)=c0/Kd/(1+c0/Kd)·(1−e^−(konc0+koff)t)
Measuring this association of kinetics at different bulk concentrations then allows for the determination of the rate constants, kon and koff. […]

[2] = molecular target: T2, BmorPBP1 (Bombyx mori pheromone-binding protein PBP1) (Bombyx mori, UniProt P34174); assay: Fluorescence binding assay in solution (1-NPN titration and competitive displacement); details: for binding in solution (displacement of 1-NPN), in words: pH 7.4, protein and probe 2 μM
T2 construct: polyhistidine (his-tag, from pET15b) (N); made in house; host or cells: Escherichia coli
T2 sequence (P34174 23-164): T1 sequence (P34174 23-164)
Description: Dissociation constants were measured in solution along with the widely adopted fluorescence binding assay. Spectra were recorded on a PerkinElmer FL 6500 spectrofluorometer at room temperature in a right-angle configuration, with a 1-cm light path quartz cuvette and 5-nm slits for both excitation and emission.
First, the binding of BmorPBP1 to the fluorescent probe N-phenyl-1-naphthylamine (1-NPN) […] of 1-NPN in methanol to final concentrations of 2–16 μM. Excitation wavelength was 337 nm and intensity was recorded at the maximum of the emission peak, 408 nm. The affinities of other ligands were evaluated in competitive binding assays by titrating a solution of the protein and 1-NPN, both at the concentration of 2 μM, with aliquots of 1-mM methanol solutions of each chemical to final concentrations of 2–16 μM. The affinity to 1-NPN was calculated using Prism software. Dissociation constants of competing ligands were evaluated from the corresponding [IC]50 values (the concentration of each ligand halving the initial value of fluorescence), using the equation: Kd = [IC]50/1 + [1-NPN]/KNPN, where [1-NPN] is the concentration of free 1-NPN and KNPN the dissociation constant of the complex Protein/1-NPN.

[3] = molecular target: T2, BmorPBP1 (Bombyx mori pheromone-binding protein PBP1); details: at concentrations of 7 μM ref 31; cited from earlier work
[4] = immobilized protein, pH 8.0, kinetic runs, averaged results, read-out: Sensor Data Kd, Kinetics
[5] = competitive displacement of 1-NPN, protein and probe 2 μM, 50 mM Tris-Cl pH 7.4, read-out: Solution Data Kd
[6] = immobilized protein, pH 8.0, Langmuir isotherm fit, read-out: Sensor Data Kd, Titration
[7] = Sensor Data Kd, Kinetics, immobilized protein, pH 8.0, kinetic runs, averaged results

| SMILES | Kd [1, 4] | sensor response (ΔIDS), in words ([1]; physiological pH / pH 8) | Kd [2, 5] | binding in solution (displacement of 1-NPN), in words [2] | further results |
| --- | --- | --- | --- | --- | --- |
| CC(=O)OCCC(C)C [Isoamyl acetate, isoamyl acetate] | > 1000 µM | does not give a significant response | ~20 µM | poor binding | sensor response (ΔIDS), in words ([1]; physiological pH / pH 8, listed as isoamyl acetate): very weak responses |
| CCC/C=C\C=C\CCCCCCCCCO [Bombykol, bombykol] | 8.2 µM |  | 0.94 µM | strongest ligand | displacement of the fluorescence probe 1-NPN, in words [3]: efficiently and similarly displace; Kd ([1]; immobilized protein, pH 4.0, read-out: Sensor Data Kd, Kinetics): > 1000 µM; Kd [1, 6]: 9.8 µM; sensor response (ΔIDS) at pH 4, in words ([1]; pH 4): failed to bind; also recorded: barely detectable; Kd ([1]; pH 8, single global analysis run of Figure 2A(I)/2C, read-out: kinetically-determined dissociation constant Kd (koff/kon)): 4.7 µM; Kd ([2]; competitive displacement of 1-NPN, pH 4.0, read-out: Solution Data Kd): > 100 µM; binding in solution at pH 4, in words ([2]; pH 4): completely abolished; also recorded: failed to bind |
| COc1nccnc1CC(C)C [2-Isobutyl-3-methoxypyrazine, 2-isobutyl-3-methoxypyrazine] | 1300 µM | very weak responses | > 100 µM | poor binding | Kd [1, 6]: 2800 µM |
| C=CCc1ccc(O)c(OC)c1 [Eugenol, eugenol] |  | strong signal | 2.8 µM | appreciable affinity | Kd [1, 7]: 8.1 µM; Kd ([1]; Sensor Data Kd, Titration, immobilized protein, pH 8.0, Langmuir isotherm fit): 7.6 µM |
| CCC/C=C\C=C\CCCCCCCCC=O [Bombykal, bombykal] | 7.4 µM |  | 1.1 µM | strongest ligand | displacement of the fluorescence probe 1-NPN, in words [3]: efficiently and similarly displace |
| C=CC(C)(O)CCC=C(C)C (centres unmarked) [Linalool, linalool] | > 1000 µM | very weak responses | ~40 µM | poor binding |  |
| c1ccc(Nc2cccc3ccccc23)cc1 [1-NPN, N-phenyl-1-naphthylamine] |  |  |  |  | Kd [2]: 0.75 µM |
| CC(C)=CCC/C(C)=C/CO [Geraniol, geraniol] |  | very weak responses |  | poor binding | Kd [1, 7]: 470 µM; Kd [2]: ~20 µM |
